Assay results reported in patent US20250000783A1, “METHOD FOR HAIR CARE BY USING CASHEW TESTA EXTRACT” (TCI CO., LTD., priority 2023, published 2025).

Tests used:
[1] = test system: human hair follicle dermal papilla cells (HFDPC); assay: Antioxidant test for hair follicle cells (ROS, DCFH-DA, flow cytometry, H2O2 stimulation); assay type: cell-based; conditions: 0.1 mM compound + 0.5 mM H2O2, read-out: ROS inhibition rate relative to control group G02
Protocol: 1. Cell strains: human hair follicle dermal papilla cells (HFDPC), which are purchased from PromoCell, with a cell number C-12071, and hereinafter referred to as HFDPC cells.
1. HFDPC cells were inoculated into a 6-well culture medium with 2 ml of cell culture medium in each well at the density of 1×10^5 cells, and cultured at 37° C. for 24 h. Therefore, the HFDPC cells were divided into three test groups which were blank group G01, control group G02 and experimental group, respectively.
2. After culture for 24 h, each group was changed as an experimental culture medium. Where, the experimental culture media in blank G01 and control group G02 were cell culture mediums without cashew testa extracts or compounds thereof. Subsequently, each group was treated at 34° C. for 1 h.
3. After treatment for 1 h, a DCFH-DA treatment reagent was added in each group so that the final concentration of each group was 5 μg/mL, and each group was treated at 37° C. for 15 min.
4. After treatment for 15 min, 100 mM of 5 μl/well H2O2 aqueous solution was added, and each group was treated at 34° C. for 0.5 h.
5. The treated experimental culture medium in each group was removed, and washed 2 times with 1× DPBS.
6. After washing, 500 μl of trypsin was added into each well for 5 min of photophobic reaction. After the reaction, the cell culture medium was added to terminate the reaction. After that, suspended cells and cell culture media in each well were collected into corresponding 1.5 ml micro-centrifuge tubes, and centrifuged for 5 min at 400×g to make cells in each centrifuge tube participated.
7. Supernatant in a centrifuge test tube for each group was removed, and the precipitate cells were washed with 1× DPBS once, and then centrifuged for 5 min at 400×g.
The supernatant in a centrifuge test tube for each group was removed again, and 200 μl of 1× DPBS was added into the centrifuge test tube for each group to resuspend the cells so as to form a cell suspension.
8. The excitation light parameter of flow cytometry was set as 450-490 nm, the scattered light parameter of flow cytometry was set as 510-550, and then the fluorescence signal of DCFH-DA in each group was detected by flow cytometry. After entering the HFDPC cells, DCFH-DA was […] into DCFH (dichlorodihydrofluorescein) and then oxidized into DCF (dichlorofluorescein) capable of emitting green fluorescence by reactive oxygen species (ROS), the fluorescence intensity of the HFDPC cells treated by DCFH-DA can reflect the content of ROS in […], so as to obtain the proportion of highly expressed ROS cells in FDPC cells accounting for the number of original cells.
The relative ROS generation amounts of all groups are calculated according to the following formula: ROS relative generation amount (%)=(green fluorescence signal in each group/green fluorescence signal in blank group G01)×100%.
Since the experiment was repeated for three times, the measurement results of experiment that was repeated for three times were averaged as an average value, and then statistically significant differences between rest results of control group G02 and other groups were obtained by student's t-test statistical analysis. In the figures, “*” represents that compared with control group G02, p is less than 0.05, “**” represents that compared with control group G02, p is less than 0.01, and “***” represents that compared with control group G02, p is less than 0.001.
Refer to FIG. 10. The cells in blank group G01 were neither treated with the cashew testa extract, nor stimulated by adding H2O2, and therefore the test results in blank group G01 represent the expression of cells under the condition of normal physiological metabolism, and the relative ROS generation amount of each group is as shown in FIG. 10. […]

[2] = test system: HFDPC cells; assay: Test for promoting hair follicle cell proliferation (EdU, flow cytometry); assay type: cell-based, human; conditions: 0.1 mM compound, 24 h; for relative hair follicle cell proliferation rate: blank group G01 = 100%
Protocol: 1. Assay kit: cell proliferation assay kit (Click-iT™ Plus EdU Flow Cytometry Assay Kits-Alexa Fluor™ 488 picolyl azide, 50 tests), which is purchased from Invitrogen, with a product number C10632.
1. HFDPC cells were inoculated into a 6-well culture medium at the density of 1×10^5 cells/well, and cultured under the conditions of 5% CO2 and 37° C. until 80%-90% of cell fullness were achieved.
2. After culture for 24 h, the content of DNA in each group was measured by using cell proliferation assay kit. Therefore, cells in each group were treated according to test procedures provided by the cell proliferation assay kit, then the excitation light parameter of flow cytometer was set as 450-490 nm, and the scattered light parameter of flow cytometer was set as 510-550 nm, and then EdU (5-ethynyl-2′-deoxyuridine) fluorescent signal of each group was detected by flow cytometer.
The proliferation rate of hair follicle cells in each group was based on the content of DNA in each group. The relative hair follicle cell proliferation rates of all groups are calculated according to the following formula: relative hair follicle cell proliferation rate (%)-(fluorescent signal of each group/fluorescent signal of blank group G01)×100%.
The statistically significant difference between test results of blank group G01 and other groups was obtained by student's t-test statistical analysis. In the figures, “*” represents that compared with blank group G01, p is less than 0.05, “**” represents that compared with blank group G01, p is less than 0.01, and “***” represents that compared with blank group G01, p is less than 0.001.

In the case of `Oc1cc(O)cc(O)c1` [phloroglucinol, Phloroglucinol], the inhibition at 100 µM [1] is reported as 53.9%, the “increase of relative hair follicle cell proliferation rate relative to blank group G01” value [2] is reported as roughly 27.9% and the “proliferation effect compared with control group G02 (20% fetal bovine serum)” value [2] is reported as “superior to that of control group G02”. For the same compound, the “relative hair follicle cell proliferation rate” value [2] was 127.9%.

`O=C(/C=C/c1ccc(O)cc1)O[C@@H]1Cc2c(O)cc(O)cc2O[C@@H]1c1ccc(O)c(O)c1` [epicatechin coumarin ester, Epicatechin coumarin ester] was tested, and the inhibition at 100 µM [1] was 100%, the “increase of relative hair follicle cell proliferation rate relative to blank group G01” value [2] was “about 14.1%” and the “relative hair follicle cell proliferation rate” value [2] was 114.1%.

`O=C(O)c1cc(O)c(O)c(O)c1` [gallic acid, Gallic acid] was tested, and the inhibition at 100 µM [1] was 80% and the “relative hair follicle cell proliferation rate” value [2] was 83.7%.

With `O=C(O[C@@H]1Cc2c(O)cc(O)cc2O[C@@H]1c1ccc(O)c(O)c1)c1cc(O)c(O)c(O)c1` [epicatechin gallate, Epicatechin gallate] the inhibition at 100 µM [1] was 96.9% and the “relative hair follicle cell proliferation rate” value [2] was 89.9%.

`O=C(/C=C/c1ccc(O)cc1)OC[C@H]1O[C@@H](Oc2cc(O)c3c(c2)OC(c2ccc(O)cc2)CC3=O)[C@H](O)[C@@H](O)[C@@H]1O` (stereo partly drawn) [Naringenin 7-O-(6″-O-p-coumaryl)-β-D-glucoside] was tested, and the inhibition at 100 µM [1] was 75.8%, the “increase of relative hair follicle cell proliferation rate relative to blank group G01” value [2] was roughly 25% and the “proliferation effect compared with control group G02 (20% fetal bovine serum)” value [2] was “superior to that of control group G02”. For the same compound, the “relative hair follicle cell proliferation rate” value [2] was 125%.

With `O=C(O)c1ccc(O)c(O)c1` [protocatechuic acid, Protocatechuic acid] the inhibition at 100 µM [1] was 99.4%, the “increase of relative hair follicle cell proliferation rate relative to blank group G01” value [2] was roughly 9.6% and the “relative hair follicle cell proliferation rate” value [2] was 109.6%.

In the case of `Oc1cc(O)c2c(c1)O[C@H](c1cc(O)c(O)c(O)c1)[C@@H](O)C2` [gallocatechin, Gallocatechin], the inhibition at 100 µM [1] is reported as 90.8% and the “relative hair follicle cell proliferation rate” value [2] is reported as 93.5%.
